Laboratory results from ChEMBL document CHEMBL4840357, “Functionalized Dioxonaphthoimidazoliums: A Redox Cycling Chemotype with Potent Bactericidal Activities against Mycobacterium tuberculosis” (J Med Chem, 2021).
Values after ≈ are worked out from the molar mass of the structure shown. Active and inactive are the calls of the source. No cut-off for these calls is given here.

Tests used:
[1] = test system: Mycobacterium tuberculosis; assay type: functional; conditions: H37Rv ATCC 27294, 168 h, time 7 day, read-out: MBC99.9
[2] = Selectivity index, ratio of IC50 for African green monkey Vero cells to MIC50 for Mycobacterium tuberculosis H37Rv ATCC 27294; assay type: toxicity; conditions: read-out: Selectivity Index
[3] = test system: Mycobacterium tuberculosis; assay type: functional, organism-based; conditions: H37Rv ATCC 27294, time 7.0 day
[4] = test system: Vero; assay: Cytotoxicity against African green monkey Vero cells assessed as reduction in cell viability incubated for 48 hrs by CellTiter 96 aqueous one solution reagent based assay; conditions: Chlorocebus sabaeus
[5] = test system: Mycobacterium tuberculosis; assay type: functional; conditions: H37Rv ATCC 27294, 168 h, time 7 day
[6] = Mutagenicity in Salmonella typhimurium TA100 at 1.5 to 64 ug in presence of S9 fraction by ames test; assay type: toxicity, subcellular, Salmonella enterica subsp. enterica serovar Typhimurium; conditions: dose 1.5-64 µg
[7] = test system: Mycolicibacterium smegmatis; assay: Induction of NADH oxidation in Mycobacterium smegmatis mc24517 inverted membrane vesicles; assay type: functional, Membrane vesicle
[8] = Mutagenicity in Salmonella typhimurium TA98 at 1.5 to 64 ug in absence of S9 fraction by ames test; assay type: toxicity, Salmonella enterica subsp. enterica serovar Typhimurium; conditions: in vivo; dose 1.5-64 µg
[9] = Half life in Swiss albino mouse at 50 mg/kg, po or 1 mg/kg, iv measured upto 24 hrs by HPLC-LCMS analysis; assay type: ADME, organism-based; conditions: in vivo
[10] = test system: Mycolicibacterium smegmatis; assay: Induction of pH gradient dissipation in Mycobacterium smegmatis mc24517 inverted membrane vesicles at 1 to 2 uM; assay type: functional; conditions: Membrane vesicle, dose 1-2 µM
[11] = Permeability of compound incubated for 16 hrs by PAMPA; assay type: ADME
[12] = Mutagenicity in Salmonella typhimurium TA100 at 1.5 to 64 ug in absence of S9 fraction by ames test; assay type: toxicity, Salmonella enterica subsp. enterica serovar Typhimurium; conditions: in vivo; dose 1.5-64 µg
[13] = Mutagenicity in Salmonella typhimurium TA98 at 1.5 to 64 ug in presence of S9 fraction by ames test; assay type: toxicity, subcellular, Salmonella enterica subsp. enterica serovar Typhimurium; conditions: dose 1.5-64 µg
[14] = Oral bioavailability in Swiss albino mouse at 50 mg/kg measured upto 24 hrs by HPLC-LCMS analysis; assay type: ADME, organism-based; conditions: in vivo
[15] = Metabolic stability in rat microsomes assessed as half life preincubated for 5 mins followed by NADPH addition and measured upto 45 mins by LC-MS/MS analysis; assay type: ADME, Microsome; conditions: time <=50 min
[16] = Clearance in Swiss albino mouse at 50 mg/kg, po or 1 mg/kg, iv measured upto 24 hrs by HPLC-LCMS analysis; assay type: ADME, organism-based; conditions: in vivo
[17] = test system: Mycolicibacterium smegmatis; assay: Induction of hydrogen […] production in Mycobacterium smegmatis mc24517 inverted membrane vesicles; assay type: functional
[18] = Volume of distribution in Swiss albino mouse at 50 mg/kg, po or 1 mg/kg, iv measured upto 24 hrs by HPLC-LCMS analysis; assay type: ADME, organism-based; conditions: in vivo
[19] = Aqueous solubility of compound at pH 7.4; assay type: physicochemical; conditions: buffer
[20] = test system: Mycolicibacterium smegmatis; assay: Induction of oxygen consumption in Mycobacterium smegmatis mc24517 inverted membrane vesicles; assay type: functional

| Structure (SMILES) | MBC [1] | selectivity ratio [2] | IC50 [4] | MIC50 [5] | MIC90 [5] | also measured |
| --- | --- | --- | --- | --- | --- | --- |
| CCCCCCCn1c2c([n+](CCCCC)c1C)C(=O)c1ccccc1C2=O.[Br-] | 6.3 µM | 26 | 20 µM | 0.77 µM | 1.2 µM | Activity [3]: Active |
| CCCCCCn1c2c([n+](C3CCC4(CCCCC4)CC3)c1C)C(=O)c1ccccc1C2=O | 1.6 µM | 21 | 6.3 µM | 0.3 µM | 0.4 µM |  |
| NNC(=O)c1ccncc1 [ISONIAZID] |  |  |  | 1.6 µM (≈ 0.219 µg/mL) | 3.2 µM (≈ 0.439 µg/mL) |  |
| CC(C)/N=c1\cc2n(-c3ccc(Cl)cc3)c3ccccc3nc-2cc1Nc1ccc(Cl)cc1 [CLOFAZIMINE] |  |  |  | 0.2 µM (≈ 0.0947 µg/mL) | 0.8 µM (≈ 0.379 µg/mL) |  |
| CCCCCCCCn1c2c([n+](CCCC)c1C)C(=O)c1ccccc1C2=O.[Br-] | 6.3 µM | 29 | 24 µM | 0.82 µM | 1.5 µM | Activity [6]: Non-Toxic; EC50 [7]: 0.25 µM; Activity [8]: Non-Toxic; half-life [9]: 7 h; Activity [10]: Active; permeability [11]: Not Active; Activity [12]: Non-Toxic; Activity [13]: Non-Toxic; bioavailability [14]: 1%; half-life [15]: 0.333 h; Activity [3]: Active; clearance [16]: 38 mL/min/kg; fold change (FC) [17]: 4; Vd [18]: 27 L/kg; solubility [19]: 118 µM; fold change (FC) [20]: 7 |
| CCCCCC[n+]1c2c(n(CC(C)C)c1C)C(=O)c1ccccc1C2=O |  |  |  | 4 µM | 6 µM |  |
| CCCCCCCC[n+]1c2c(n(CC(C)C)c1C)C(=O)c1ccccc1C2=O |  |  |  | 2 µM | 3 µM |  |
| CCCCn1c2c([n+](C3CCC4(CCCCC4)CC3)c1C)C(=O)c1ccccc1C2=O.[Br-] | 1.6 µM | 54 | 15 µM | 0.28 µM | 0.53 µM | Activity [6]: Non-Toxic; Activity [8]: Non-Toxic; half-life [9]: 7 h; permeability [11]: Not Active; Activity [12]: Non-Toxic; Activity [13]: Non-Toxic; bioavailability [14]: 1%; half-life [15]: 0.333 h; clearance [16]: 38 mL/min/kg; Vd [18]: 27 L/kg; solubility [19]: 118 µM |
| CCCCCCn1c2c([n+](CCCCCC)c1C)C(=O)c1ccccc1C2=O | 6.3 µM | 21 | 14 µM | 0.67 µM | 1.5 µM |  |
| CCCCCCCCn1c2c([n+](C3CCC4(CCCCC4)CC3)c1C)C(=O)c1ccccc1C2=O | 1.2 µM | 17 | 5 µM | 0.3 µM | 0.4 µM |  |
